# Test results from patent US8163528B2, “Nucleic acid molecules encoding thymidine kinase fusion proteins” (Darwin Molecular Corporation, priority 1997, dated 2012).
# Assays:
# [1] = Time course analysis of mutant enzymes (thymidine phosphorylation); type: biochemical; settings: 30° C., 0-30 minutes; adjusted to protein synthesis
# Procedure: For the high-activity mutant enzymes, unlabeled translation products were diluted 1/9 and incubated for 0, 5, 10, 20, or 30 minutes at 30° C.
# The low-activity mutants were diluted 1/5, and the rate of phosphorylation as a function of time was also determined.
# KY895 = assay: Secondary screen: colony formation on acyclovir, AZT, TK selection and LB plates; type: cell-based, E. coli; set-up: key: ++: the same number of colonies were observed as compared to control plates; +: fewer (<20% those observed with pMCC) and generally smaller (˜50% smaller diameter) colonies were observed as compared to control plates; −: no colonies were observed; settings: for colonies on AZT plates: 1 μg/mL thymidine+0.05 μg/mL AZT; for colonies on AZT plates / colonies on ACV plates / colonies on TK selection plates, 37° C.: 37° C.; for colonies on ACV plates: 1 μg/mL thymidine+1 μg/mL acyclovir; for colonies on LB plates: LB+carb50 plates
# Procedure: Mutant cultures were also spread onto duplicate TK selection and LB+carb50 plates. One set of TK selection plates and LB+carb50 plates were incubated at 42° C. All other plates were incubated at 37° C. After 16-24 hours the plates were scored.
# [2] = Substrate specificity assay of cell-free translation products, ACV; type: biochemical
# Source text: (§1) No significant difference in phosphorylation efficiency was observed between pT7:MCC and pT7:HSVTKII when thymidine (1.3-fold), deoxycytidine (1.3-fold), GCV (0.8-fold), ACV (0.95-fold), or AZT (1.1-fold) were used as substrate. Furthermore, Sanderson et al. (J. Mol. Biol. 202:917-919, 1988) reported that the Km for thymidine and ATP and the Vmax of TK purified from E. coli harboring pHETK2 (the parent plasmid of pMCC) and HSV-1-infected cells were indistinguishable. Therefore, the alterations observed in the properties of the mutant TKs can be attributed to the nucleotide substitutions within the target region and that any differences between the vectors (pT7:MCC and pT7:HSVTKII) exerted only minor changes in catalytic properties.
# (§2) Three of the mutants (P155A/F161V, F161I and F161C) were assayed in triplicate for the relative levels of phosphorylation using thymidine, deoxycytidine, ACV, GCV, or AZT as substrates. Briefly, forty-eight […] of each tritiated substrate was used in each assay reaction. Translation products were diluted for each nucleoside assay as follows (translation/H2O): 1/100, thymidine; 2/3, deoxycytidine, GCV, and AZT; 4/1, ACV. Each set of assays was incubated for 2 hours at 30° C. and the amount of phosphorylated product determined.
# [3] = type: biochemical; settings: for thermal stability after 42° C. preincubation compared to HSVTKII: cell-free translation products
# Procedure: To substantiate this observation, cell-free translation products were incubated at 42° C. for increasing times prior to being assayed for enzyme activity. Briefly, cell free translation (“CFT”) products of each high-activity mutant, -RNA, and HSVTKII samples were diluted 1/9 and incubated for 0, 5, 10, and 20 minutes at 42° C. The preincubated samples were then assayed for 5 minutes (P155A/F161V and F1611) or 20 minutes (-RNA, HSVTKII, F161C, and D162E). The percent of activity remaining was determined with the untreated samples set at 100%. […] Because F161C lost greater than 90% of enzyme activity within the first 20 minutes at 42° C., shorter incubation periods at 42° C. were performed […].
# Low-activity mutant CFT products were diluted 1/5 and incubated for 0, 20, 40, or 60 minutes at 42° C. The preincubated samples were then assayed in triplicate for the thymidine phosphorylation for 60 minutes. The percent of activity remaining was determined using the untreated (time 0) sample as 100%.
# [4] = Substrate specificity assay of cell-free translation products, deoxycytidine; type: biochemical
# Source text: as §1, §2
# [5] = Substrate specificity assay of cell-free translation products, thymidine; type: biochemical
# Source text: as §1, §2
# BHK tk = assay: Sensitivity of guanylate kinase transfectant pools to ACV in TK expressing clones; type: cell-based, hamster; settings: guanylate kinase expression in the presence of wild-type TK
# Procedure: pREP8-7, pREP8-7:hgmk and pREP8-7:mgmk are used to transfect BHK tk, TK-transfected clone C3 and 75-transfected clone D4. Histidinol is used to select pools of stable transfectants and to isolate individual clones.
# As in Example 8, pools of transfectants are placed in 96 well microtiter dishes at 1000 cells/well. Eight replicates are incubated for three days in the presence of various GCV or ACV concentrations.
# [6] = Kinetic analysis of fusion proteins, GMP; type: biochemical; settings: purified protein
Substance,TK activity in time course analysis compared to wild-type [1],colonies on AZT plates (KY895),colonies on ACV plates (KY895),"colonies on TK selection plates, 37° C. (KY895)","colonies on TK selection plates, 42° C. (KY895)",colonies on LB plates (KY895),ACV phosphorylation over HSVTKII [2] [fold],activity loss after 5 minutes at 42° C. ([3]; cell-free translation product) [%],enzyme activity lost within the first 20 minutes at 42° C. ([3]; cell-free translation product),phosphorylation of deoxycytidine over the wild-type enzyme [4] [fold],phosphorylation of thymidine relative to HSVTKII [5] [fold],thermal stability after 42° C. preincubation compared to HSVTKII [3],increased sensitivity to ACV relative to TK expression alone (BHK tk),Km [6] [µM]
D162E,no difference in activities when compared to the wild-type TK enzyme activities,,,,,,,,,,,,,
F161C,no difference in activities when compared to the wild-type TK enzyme activities,−,+ (fewer (<20% those observed with pMCC) and generally smaller (˜50% smaller diameter) colonies were observed as compared to control plates),++,++,++,2,~85,greater than 90%,2.8,,,,
F161I,statistically higher affinity for thymidine than the wild-type TK,+ (fewer (<20% those observed with pMCC) and generally smaller (˜50% smaller diameter) colonies were observed as compared to control plates),+ (fewer (<20% those observed with pMCC) and generally smaller (˜50% smaller diameter) colonies were observed as compared to control plates),++,++,++,,,,1.9,2.2,,,
F161I/R163H,,++,++,++,+ (fewer (<20% those observed with pMCC) and generally smaller (˜50% smaller diameter) colonies were observed as compared to control plates),++,,,,,,equivalent to HSVTKII,,
F161L,"moderate ability to phosphorylate thymidine, albeit at a much reduced rate from HSVTKII",++,++,++,−,++,,,,,,more thermolabile that HSVTKII,,
Guanylate kinase: guanylate kinase expressed from pREP8-7 constructs in wild-type TK clone C3 (human or murine not stated),,,,,,,,,,,,,approximately 2 fold,
"P155A/F161V: HSV-1 TK, proline to alanine mutation at position 155 and phenylalanine to valine at position 161",statistically higher affinity for thymidine than the wild-type TK,+ (fewer (<20% those observed with pMCC) and generally smaller (˜50% smaller diameter) colonies were observed as compared to control plates),++,++,++,++,2.4,,,2.8,2.6,,,
gmk: wild-type guanylate kinase (murine gmk used in the fusions),,,,,,,,,,,,,,25
